In publication PMC4551390 (Leukemia, 2015):

Assays:
[1] = Plasma pharmacokinetics after 2-hr IV infusion; settings: for AUC / Cmax / half-life: human, plasma, intravenous; for AUC / Cmax: Mean
[2] = test system: bcl-2; assay: Western blot protein expression in patient samples; type: in vivo, human; settings: 2 and 4 hours of treatment vs pretreatment
[3] = test system: T-cells; settings: pre-clinical; cited from earlier work
[4] = test system: CLL cells; settings: pre-clinical; cited from earlier work
[5] = test system: MCL-1; assay: Western blot protein expression in patient samples; type: in vivo, human; settings: 2 and 4 hours of treatment vs pretreatment, P<0.0001

CCc1cnn2c(NCc3ccc[n+]([O-])c3)cc(N3CCCC[C@H]3CCO)nc12 [Dinaciclib]
CL, Mean ([1]; Day 1, 5 mg/m^2): 26.2 L/hr/m2
Vd, Mean ([1]; Day 1, 5 mg/m^2): 92.8 L/m2
CL, Mean ([1]; Day 1, 7 mg/m^2): 17.3 L/hr/m2
Vd, Mean ([1]; Day 1, 7 mg/m^2): 66.2 L/m2
CL, Mean ([1]; Day 1, 10 mg/m^2): 19.9 L/hr/m2
Vd, Mean ([1]; Day 1, 10 mg/m^2): 81.8 L/m2
CL, Mean ([1]; Day 1, 14 mg/m^2): 18.1 L/hr/m2
Vd, Mean ([1]; Day 1, 14 mg/m^2): 74.4 L/m2
CL, Mean ([1]; Day 1, 17 mg/m^2): 13.2 L/hr/m2
Vd, Mean ([1]; Day 1, 17 mg/m^2): 55.9 L/m2
CL, Mean ([1]; Day 15, 5 mg/m^2): 16.1 L/hr/m2
Vd, Mean ([1]; Day 15, 5 mg/m^2): 60.3 L/m2
CL, Mean ([1]; Day 15, 7 mg/m^2): 23.8 L/hr/m2
Vd, Mean ([1]; Day 15, 7 mg/m^2): 79.5 L/m2
CL, Mean ([1]; Day 15, 10 mg/m^2): 16.8 L/hr/m2
Vd, Mean ([1]; Day 15, 10 mg/m^2): 68.4 L/m2
CL, Mean ([1]; Day 15, 14 mg/m^2): 17 L/hr/m2
Vd, Mean ([1]; Day 15, 14 mg/m^2): 71.4 L/m2
CL, Mean ([1]; Day 15, 17 mg/m^2): 13.8 L/hr/m2
Vd, Mean ([1]; Day 15, 17 mg/m^2): 58.9 L/m2
increases in exposure (Cmax and AUC) ([1]; at 17 mg/m^2): greater than dose-proportional
AUC ([1]; 5 mg/m2, AUC(I), Day 1, 5 mg/m^2): 191 ng·h/mL
AUC ([1]; 5 mg/m2, AUC(I), Day 15, 5 mg/m^2): 310 ng·h/mL
Cmax ([1]; 5 mg/m2, Cmax, Day 1, 5 mg/m^2): 95.4 ng/mL
Cmax ([1]; 5 mg/m2, Cmax, Day 15, 5 mg/m^2): 150 ng/mL
half-life ([1]; 5 mg/m2, T1/2, Mean, Day 1, 5 mg/m^2): 2.45 h
half-life ([1]; 5 mg/m2, T1/2, Mean, Day 15, 5 mg/m^2): 2.5 h
AUC ([1]; 7 mg/m2, AUC(I), Day 1, 7 mg/m^2): 403 ng·h/mL
AUC ([1]; 7 mg/m2, AUC(I), Day 15, 7 mg/m^2): 294 ng·h/mL
Cmax ([1]; 7 mg/m2, Cmax, Day 15, 7 mg/m^2): 157 ng/mL
half-life ([1]; 7 mg/m2, T1/2, Mean, Day 15, 7 mg/m^2): 2.31 h
AUC ([1]; 10 mg/m2, AUC(I), Day 1, 10 mg/m^2): 501 ng·h/mL
AUC ([1]; 10 mg/m2, AUC(I), Day 15, 10 mg/m^2): 592 ng·h/mL
Cmax ([1]; 10 mg/m2, Cmax, Day 1, 10 mg/m^2): 277 ng/mL
Cmax ([1]; 10 mg/m2, Cmax, Day 15, 10 mg/m^2): 299 ng/mL
half-life ([1]; 10 mg/m2, T1/2, Mean, Day 1, 10 mg/m^2): 2.85 h
half-life ([1]; 10 mg/m2, T1/2, Mean, Day 15, 10 mg/m^2): 2.82 h
AUC ([1]; 14 mg/m2, AUC(I), Day 1, 14 mg/m^2): 775 ng·h/mL
AUC ([1]; 14 mg/m2, AUC(I), Day 15, 14 mg/m^2): 827 ng·h/mL
Cmax ([1]; 14 mg/m2, Cmax, Day 1, 14 mg/m^2): 404 ng/mL
Cmax ([1]; 14 mg/m2, Cmax, Day 15, 14 mg/m^2): 428 ng/mL
half-life ([1]; 14 mg/m2, T1/2, Mean, Day 1, 14 mg/m^2): 2.85 h
AUC ([1]; 17 mg/m2, AUC(I), Day 1, 17 mg/m^2): 1290 ng·h/mL
AUC ([1]; 17 mg/m2, AUC(I), Day 15, 17 mg/m^2): 1260 ng·h/mL
Cmax ([1]; 17 mg/m2, Cmax, Day 1, 17 mg/m^2): 624 ng/mL
Cmax ([1]; 17 mg/m2, Cmax, Day 15, 17 mg/m^2): 634 ng/mL
half-life ([1]; 17 mg/m2, T1/2, Mean, Day 15, 17 mg/m^2): 2.95 h
accumulation in plasma ([1]; weekly 2-hour IV infusion): did not accumulate
BCL2 protein level [2]: no significant change
cytotoxicity to T-cells [3]: not cytotoxic
therapeutic efficacy against CLL cells as compared to flavopiridol [4]: improved therapeutic efficacy
MCL-1 protein expression [5]: significantly reduced expression
